These are literature values, as cited in patent publication EP4115885A1 (Charité - Universitätsmedizin Berlin, priority 2021, dated 2023).

For data set [1] the following is noted: human, in vivo.

`C[C@@H]1CN(Cc2ccc(F)cc2)CCN1C(=O)COc1ccc(Cl)cc1NC(N)=O` [BAY 86-5277, N-[5-chloro-2-[2-[(2R)-4-[(4-fluorophenyl)methyl]-2-methyl-1-piperazinyl]-2-oxoethoxy]phenyl]-urea]: the “effect of blockade of CCR1” value in the data set with model of sepsis is “beneficial”. Also, the tolerability entry in data set [1] is listed as “generally well tolerated”.
